“And” between values parts separate entries of the source, which are not always exact repeats. Equal entries are not always repeated. Inconclusive results and toxic doses are left out. Rule as the data show it: active = T/C of 150% or more; inactive = T/C below 125%.
System: L1210 leukemia ip in BDF1 mice, survival T/C
Experiment: NCI In Vivo Anticancer Drug Screen. Data for tumor model L1210 Leukemia (intraperitoneal) in B6D2F1 (BDF1) mice
Conditions: endpoint: mean survival time, higher = longer survival
In short: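 Survival endpoint. Drug-treated group vs vehicle group, expressed as T divided by C. Tumor passaged by transplantation.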

[1] = dose: 100.0 mg/kg/injection, schedule: Q01DX009 (ip), vehicle: saline with Tween-80
[2] = dose: 200.0 mg/kg/injection, schedule: Q01DX009 (ip), vehicle: saline with Tween-80
[3] = dose: 100.0 mg/kg/injection, schedule: Q01DX001 (ip), vehicle: carboxymethylcellulose (CMC)
[4] = dose: 75.0 mg/kg/injection, schedule: Q01DX001 (ip), vehicle: saline
[5] = dose: 150.0 mg/kg/injection, schedule: Q01DX001 (ip), vehicle: saline
[6] = dose: 300.0 mg/kg/injection, schedule: Q01DX001 (ip), vehicle: saline
[7] = dose: 200.0 mg/kg/injection, schedule: Q01DX001 (ip), vehicle: carboxymethylcellulose (CMC)
[8] = dose: 400.0 mg/kg/injection, schedule: Q01DX001 (ip), vehicle: carboxymethylcellulose (CMC)
[9] = dose: 25.0 mg/kg/injection, schedule: Q04DX003 (ip), vehicle: saline
[10] = dose: 50.0 mg/kg/injection, schedule: Q04DX003 (ip), vehicle: saline
[11] = dose: 100.0 mg/kg/injection, schedule: Q01DX009 (ip), vehicle: saline
[12] = dose: 100.0 mg/kg/injection, schedule: Q04DX003 (ip), vehicle: saline
[13] = dose: 200.0 mg/kg/injection, schedule: Q01DX009 (ip), vehicle: saline
[14] = dose: 200.0 mg/kg/injection, schedule: Q04DX003 (ip), vehicle: saline
[15] = dose: 400.0 mg/kg/injection, schedule: Q04DX003 (ip), vehicle: saline

Measured: T/C

O=C(O)c1ccsc1Cc1ccsc1
inactive: dose: 50.0 mg/kg/injection, schedule: Q01DX009 (ip), vehicle: saline with Tween-80 89 % of control | [1] 96 % of control | [2] 86 % of control

C=CCNC(=S)Nc1ccc(O)cc1
inactive: dose: 100.0 mg/kg/injection, schedule: Q01DX009 (ip), vehicle: Klucel (hydroxypropylcellulose) (HPC) 91 % of control | dose: 200.0 mg/kg/injection, schedule: Q01DX009 (ip), vehicle: Klucel (hydroxypropylcellulose) (HPC) 97 % of control | dose: 400.0 mg/kg/injection, schedule: Q01DX009 (ip), vehicle: Klucel (hydroxypropylcellulose) (HPC) 96 % of control

COc1cccc(/C=N\NC(=O)C(C)SC(C)C(=O)N/N=C/c2cccc(OC)c2)c1 (stereo unspecified)
inactive: dose: 100.0 mg/kg/injection, schedule: Q01DX009 (ip), vehicle: other 91 % of control | dose: 100.0 mg/kg/injection, schedule: Q04DX003 (ip), vehicle: other 89 % of control | dose: 200.0 mg/kg/injection, schedule: Q01DX009 (ip), vehicle: other 94 % of control | dose: 200.0 mg/kg/injection, schedule: Q04DX003 (ip), vehicle: other 89 % of control | dose: 400.0 mg/kg/injection, schedule: Q01DX009 (ip), vehicle: other 94 % of control | dose: 400.0 mg/kg/injection, schedule: Q04DX003 (ip), vehicle: other 96 % of control

CN1CCN(CCN2CCN(CCCN3c4ccccc4Sc4ccc(Cl)cc43)CC2)C1=O
inactive: [3] 104 % of control

CCCCNC(=O)/C(=C\c1ccccc1)NC(C)=O
inactive: dose: 3.0 mg/kg/injection, schedule: Q04DX003 (ip), vehicle: DMSO 92 % of control | dose: 6.0 mg/kg/injection, schedule: Q04DX003 (ip), vehicle: DMSO 92 % of control | dose: 6.25 mg/kg/injection, schedule: Q01DX009 (ip), vehicle: DMSO 96 % of control | dose: 12.0 mg/kg/injection, schedule: Q04DX003 (ip), vehicle: DMSO 94 % of control | dose: 12.5 mg/kg/injection, schedule: Q01DX009 (ip), vehicle: DMSO 93 % of control | dose: 12.5 mg/kg/injection, schedule: Q04DX003 (ip), vehicle: DMSO 100 % of control

Cc1ccc(Nc2cc(=S)nc(N)[nH]2)cc1C
inactive: dose: 100.0 mg/kg/injection, schedule: Q01DX Z (ip), vehicle: methylcellulose (MC) 103 % of control | dose: 200.0 mg/kg/injection, schedule: Q01DX Z (ip), vehicle: methylcellulose (MC) 95 % of control

CC1=CC(=N\S(=O)(=O)c2ccccc2)/C2(Cl)CC(C)=C(C)CC2/C1=N/S(=O)(=O)c1ccccc1 (stereo unspecified)
inactive: dose: 50.0 mg/kg/injection, schedule: Q01DX001 (ip), vehicle: Klucel (hydroxypropylcellulose) (HPC) 98 % of control | dose: 100.0 mg/kg/injection, schedule: Q01DX001 (ip), vehicle: Klucel (hydroxypropylcellulose) (HPC) 95 % of control | dose: 200.0 mg/kg/injection, schedule: Q01DX001 (ip), vehicle: Klucel (hydroxypropylcellulose) (HPC) 103 % of control

O=C(C1=CCCCC1)c1ccccc1
inactive: dose: 75.0 mg/kg/injection, schedule: Q04DX002 (ip), vehicle: saline with Tween-80 108 % of control | dose: 150.0 mg/kg/injection, schedule: Q04DX002 (ip), vehicle: saline with Tween-80 97 % of control | dose: 300.0 mg/kg/injection, schedule: Q04DX002 (ip), vehicle: saline with Tween-80 114 % of control

O=S(=O)(F)c1ccc(C[P+](c2ccccc2)(c2ccccc2)c2ccccc2)cc1
inactive: [4] 106 % of control | [5] 105 % of control | [6] 98 % of control

CC1OC1CO (stereo unspecified)
inactive: dose: 100.0 mg/kg/injection, schedule: Q04DX003 (ip), vehicle: saline with Tween-80 96 % of control | dose: 200.0 mg/kg/injection, schedule: Q04DX003 (ip), vehicle: saline with Tween-80 101 % of control | dose: 400.0 mg/kg/injection, schedule: Q04DX003 (ip), vehicle: saline with Tween-80 89 % of control

Cc1nc(N)nc(N)c1-c1ccccc1
inactive: [3] 100 % of control | [7] 94 % of control | [8] 92 % of control

O=C(OC1COC(O)C(OC(=O)c2ccccc2)C1OC(=O)c1ccccc1)c1ccccc1 (stereo unspecified)
inactive: dose: 100.0 mg/kg/injection, schedule: Q01DX001 (ip), vehicle: saline with Tween-80 101 % of control | dose: 200.0 mg/kg/injection, schedule: Q01DX001 (ip), vehicle: saline with Tween-80 93 % of control

CCOP(=O)(/N=C1/C2CCC(C2)C1C)OCC (stereo unspecified)
inactive: dose: 12.5 mg/kg/injection, schedule: Q04DX003 (ip), vehicle: saline 94 % of control | [9] 105 % of control | [10] 102 % of control

OC(Nc1ccccn1)(C(F)(F)F)C(F)(F)F
inactive: dose: 100.0 mg/kg/injection, schedule: Q01DX001 (ip), vehicle: saline 103 % of control

CCCCCCCCCC(=O)NO
inactive: [9] 102 % of control | [10] 98 % of control | dose: 100.0 mg/kg/injection, schedule: Q01DX001 (ip), vehicle: other 97 % of control | [11] 87 % of control | dose: 100.0 mg/kg/injection, schedule: Q04DX003 (ip), vehicle: Klucel (hydroxypropylcellulose) (HPC) 93 % of control | [12] 86 % of control and 92 % of control | dose: 200.0 mg/kg/injection, schedule: Q01DX001 (ip), vehicle: other 97 % of control | [13] 98 % of control | dose: 200.0 mg/kg/injection, schedule: Q04DX003 (ip), vehicle: Klucel (hydroxypropylcellulose) (HPC) 93 % of control | [14] 88 % of control | dose: 400.0 mg/kg/injection, schedule: Q01DX001 (ip), vehicle: other 95 % of control | dose: 400.0 mg/kg/injection, schedule: Q04DX003 (ip), vehicle: Klucel (hydroxypropylcellulose) (HPC) 91 % of control | [15] 86 % of control

COc1ccc(C(O)c2ccccc2C(=O)Nc2ccccc2)cc1 (stereo unspecified)
inactive: [1] 98 % of control | [2] 88 % of control | dose: 400.0 mg/kg/injection, schedule: Q01DX009 (ip), vehicle: saline with Tween-80 95 % of control

Cc1cc(C)c2ccc([S+](C)C)c-2c(C)c1
inactive: dose: 5.0 mg/kg/injection, schedule: Q01DX001 (ip), vehicle: carboxymethylcellulose (CMC) 105 % of control | dose: 10.0 mg/kg/injection, schedule: Q01DX001 (ip), vehicle: carboxymethylcellulose (CMC) 100 % of control | dose: 20.0 mg/kg/injection, schedule: Q01DX001 (ip), vehicle: carboxymethylcellulose (CMC) 105 % of control | dose: 40.0 mg/kg/injection, schedule: Q01DX001 (ip), vehicle: carboxymethylcellulose (CMC) 108 % of control | dose: 80.0 mg/kg/injection, schedule: Q01DX001 (ip), vehicle: carboxymethylcellulose (CMC) 97 % of control

CS(=O)(=O)Nc1ccccc1OS(C)(=O)=O
inactive: [4] 102 % of control | [5] 106 % of control | [6] 106 % of control

C=CCCCCCCCC[CH2][Sn]([Cl])([Cl])[Cl]
inactive: [10] 93 % of control | [12] 101 % of control

CN(C)C(=S)N(C)C
inactive: dose: 50.0 mg/kg/injection, schedule: Q01DX001 (ip), vehicle: carboxymethylcellulose (CMC) 104 % of control | [3] 104 % of control | [11] 90 % of control | [12] 107 % of control | [7] 101 % of control | [13] 96 % of control | [14] 107 % of control | [8] 98 % of control | dose: 400.0 mg/kg/injection, schedule: Q01DX009 (ip), vehicle: saline 98 % of control | [15] 104 % of control

COC1OC(COC(C)=O)C(OC(C)=O)C(OC(C)=O)[CH]1[Hg][S]c1ccccc1 (stereo unspecified)
inactive: dose: 1.0 mg/kg/injection, schedule: Q01DX015 (ip), vehicle: carboxymethylcellulose (CMC) 105 % of control | dose: 2.0 mg/kg/injection, schedule: Q01DX015 (ip), vehicle: carboxymethylcellulose (CMC) 98 % of control | dose: 4.0 mg/kg/injection, schedule: Q01DX015 (ip), vehicle: carboxymethylcellulose (CMC) 100 % of control | dose: 8.0 mg/kg/injection, schedule: Q01DX015 (ip), vehicle: carboxymethylcellulose (CMC) 94 % of control and 86 % of control | dose: 16.0 mg/kg/injection, schedule: Q01DX015 (ip), vehicle: carboxymethylcellulose (CMC) 109 % of control

CCO/C(C)=C(/C#N)c1ccc(Cl)cc1
inactive: dose: 12.5 mg/kg/injection, schedule: Q01DX009 (ip), vehicle: gum acacia 104 % of control | dose: 25.0 mg/kg/injection, schedule: Q01DX009 (ip), vehicle: gum acacia 104 % of control | dose: 50.0 mg/kg/injection, schedule: Q01DX009 (ip), vehicle: gum acacia 102 % of control
